Assay results reported in patent publication US6207399A, “Methods of determining endogenous thrombin potential (ETP) and thrombin substrates for use in said methods” (Hemker; Hendrik Coenraad, priority 1995, dated 2001).
Square brackets hold non-standard residues; d marks the D form. Peptide text beside a SMILES is read from it. * marks the point of attachment. pNA = O=[N+]([O-])c1ccc(N*)cc1; Nle = CCCC[C@H](N)C(=O)O; Orn = NCCC[C@H](N)C(=O)O

Columns and labels:
Format in all cases: biochemical
[1] = target: T1, human α-thrombin (Homo sapiens, UniProt P00734); test: Kinetics of hydrolysis of substrates by human α-thrombin in buffer A at 37° C. (Example 2, Table 1)
T1 construct: Pure human α-thrombin; gift of Dr. T. Lindhout (University of Limburg, Maastricht)
Description: (§1) Kinetic parameters: The hydrolysis experiments were run in buffer A at 37° C. The liberation of p-nitroaniline was monitored at 405 nm in a dual wavelength (405-546 nm) spectrophotometer made in our workshop, using a personal computer for data recording. In a polystyrene microcuvette (total volume 500 μL), buffer A and substrate solution were added to obtain a final substrate concentration between 1 to 2000 μM. After 5 min of incubation at 37° C., enzyme solution was added to achieve a final concentration between 0.5 to 100 nM. The measurement was carried out at 37° C. in a thermostated cuvette-holder. The Michaelis constant (Km) and the catalytic constant (kcat) were obtained by measuring initial reaction velocities at different substrate concentrations. The data obtained were fitted by linear regression on the Michaelis-Menten equation.
Kinetic parameters: In a preliminary experiment, the substrate was hydrolyzed under the following conditions: enzyme concentration: 10 to 20 nM, substrate concentration: 200 μM in buffer A to get an impression of the initial velocity. […] The results are given in table 1 and 2 for thrombin and factor Xa respectively. The Km and kcat for each substrate were determined from the initial velocities measured for at least six substrate concentrations in the concentration range as given. The enzyme concentration used gives a good signal to noise ratio. The data given are obtained from one or two experiments. The data from table 1 and 2 were only used as the first selection criterion to get a rough impression of the hydrolysis behaviour. Notwithstanding the preliminary character of the measurement it was helpful in the design of the substrates of our interest.

[2] = target: T2, factor Xa (Homo sapiens, UniProt P00742); test: Kinetic parameters of hydrolysis of the substrates by factor Xa in buffer A at 37° C. (Example 4, Table 3); design: key to Factor Xa kcat: NH: no hydrolysis; conditions: for Factor Xa kcat / Factor Xa kcat /Km / Km: buffer A, 37° C., 50 nM factor Xa
T2 construct: human factor Xa samples; gift of Dr. T. Lindhout (University of Limburg, Maastricht)
T2 sequence (P00742 41-179 limits assumed): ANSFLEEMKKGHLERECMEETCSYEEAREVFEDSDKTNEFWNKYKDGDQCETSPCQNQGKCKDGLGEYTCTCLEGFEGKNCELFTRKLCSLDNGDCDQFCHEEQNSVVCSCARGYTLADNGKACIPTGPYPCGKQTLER
T2 sequence (P00742 235-488 limits assumed): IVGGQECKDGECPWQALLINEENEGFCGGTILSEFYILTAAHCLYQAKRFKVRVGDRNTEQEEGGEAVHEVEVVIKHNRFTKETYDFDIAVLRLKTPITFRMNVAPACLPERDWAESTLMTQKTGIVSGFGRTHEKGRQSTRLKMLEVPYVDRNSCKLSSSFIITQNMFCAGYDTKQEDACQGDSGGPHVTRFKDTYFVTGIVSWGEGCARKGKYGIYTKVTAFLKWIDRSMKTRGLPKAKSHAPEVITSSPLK
Description: as §1, with “200” for “1”, “50” for “100”, “measuring the” for “measuring”
(§2) Kinetic parameters: The Km and kcat values for each substrate were determined at an enzyme concentration of 0.5-50 nM (thrombin) and 50 nM factor Xa. From the initial reaction velocities, measured for at least six substrate concentrations between 200 and 2000 μM, the Km and kcat values were calculated by linear regression on the Michaelis-Menten curve. Table 3 gives an overview of the kinetic parameters of the different substrates hydrolyzed by thrombin and by factor Xa in buffer A.

[3] = target: thrombin (Homo sapiens, UniProt P00734); test: Kinetic parameters of hydrolysis of the substrates by thrombin in buffer A at 37° C. (Example 4, Table 3); design: Pure human α-thrombin; gift of Dr. T. Lindhout (University of Limburg, Maastricht); key to Thrombin kcat: NH: no hydrolysis; conditions: for Km / Thrombin kcat / Thrombin kcat /Km: buffer A, 37° C.
Description: as §1, with “200” for “1”, “50” for “100”, “measuring the” for “measuring”
as §2

| Km [1] [µM] | kcat [1] [s⁻¹] | kcat /Km [1] [M/s] | Factor Xa kcat [2] | Thrombin kcat [3] | SMILES | Km [3] [µM] | Thrombin kcat /Km [3] [M/s] | Factor Xa kcat /Km [2] [M/s] | Km [2] [µM] | hydrolysis by Factor Xa (text on Table 3) [2] | hydrolysis by thrombin (text on Table 3) [3] |
| --- | --- | --- | --- | --- | --- | --- | --- | --- | --- | --- | --- |
| 35 | 90.4 | 2.58e+06 | NH | 90 s⁻¹ | Cl.Cl.NCCCC[C@H](NC(=O)[C@@H]1CCCN1C(=O)[C@H](N)Cc1ccccc1)C(=O)Nc1ccc([N+](=O)[O-])cc1 [2HCl.H-D-Phe-Pro-Lys-pNA] (H-[dF]-Pro-Lys-pNA) | 35 | 2.58e+06 |  |  |  |  |
|  |  |  | NH | NH | CCCC[C@H](NC(=O)[C@@H](NC(=O)CN)C(C)C)C(=O)Nc1ccc([N+](=O)[O-])cc1.Cl [HCl.H-Gly-Val-Nle-pNA] (H-Gly-Val-[Nle]-pNA) |  |  |  |  | hydrolysed by neither thrombin nor Factor Xa | hydrolysed by neither thrombin nor Factor Xa |
|  |  |  | NH | NH | CC(C)[C@H](NC(=O)OCCS(C)(=O)=O)C(=O)N[C@@H](CCCN)C(=O)Nc1ccc([N+](=O)[O-])cc1.Cl [Msc-Val-Orn-pNA.HCl] |  |  |  |  |  |  |
|  |  |  | NH | NH | CC(C)C(N)C(=O)NC(CCCCN)C(=O)Nc1ccc([N+](=O)[O-])cc1.Cl.Cl (stereo not drawn) [2HCl.H-Val-Lys-pNA] |  |  |  |  |  |  |
|  |  |  | NH | NH | CCCC[C@H](NC(=O)[C@@H](NC(=O)OCCS(C)(=O)=O)C(C)C)C(=O)Nc1ccc([N+](=O)[O-])cc1 [Msc-Val-Nle-pNA] |  |  |  |  |  |  |
|  |  |  | NH | NH | CC(C)[C@H](NC(=O)OCCS(C)(=O)=O)C(=O)N[C@@H](CCCCN)C(=O)Nc1ccc([N+](=O)[O-])cc1.Cl [Msc-Val-Lys-pNA.HCl] |  |  |  |  |  |  |
|  |  |  | NH | NH | CC(C)[C@H](NC(=O)CN)C(=O)N[C@@H](CCCN)C(=O)Nc1ccc([N+](=O)[O-])cc1.Cl.Cl [2HCl.H-Gly-Val-Orn-pNA] (H-Gly-Val-[Orn]-pNA) |  |  |  |  | hydrolysed by neither thrombin nor Factor Xa | hydrolysed by neither thrombin nor Factor Xa |
|  |  |  | 1.07 s⁻¹ | 1.44 s⁻¹ | CC(C)[C@H](NC(=O)[C@@H](N)CCC(=O)O)C(=O)N[C@@H](CCCNC(=N)N)C(=O)Nc1ccc([N+](=O)[O-])cc1.Cl.Cl [2HCl.H-Glu-Val-Arg-pNA] (H-Glu-Val-Arg-pNA) | 932 | 1540 | 709 | 1510 |  |  |
|  |  |  | NH | 0.20 s⁻¹ | CC(C)[C@H](NC(=O)CN)C(=O)N[C@@H](CCCCN)C(=O)Nc1ccc([N+](=O)[O-])cc1.Cl.Cl [2HCl.H-Gly-Val-Lys pNA, 2HCl.H-Gly-Val-Lys-pNA] (H-Gly-Val-Lys-pNA) | 986 | 198 |  |  | not by Factor Xa | hydrolysed by thrombin |

| SMILES | Km [1] [µM] | kcat [1] [s⁻¹] | kcat /Km [1] [M/s] | Factor Xa kcat [2] | Thrombin kcat [3] | Km [3] [µM] | Thrombin kcat /Km [3] [M/s] | Factor Xa kcat /Km [2] [M/s] | Km [2] [µM] | hydrolysis by Factor Xa (text on Table 3) [2] | hydrolysis by thrombin (text on Table 3) [3] |
| --- | --- | --- | --- | --- | --- | --- | --- | --- | --- | --- | --- |
| CC(C)[C@H](NC(=O)CNC(=O)CNC(=O)CNC(=O)[C@@H](N)CCC(=O)O)C(=O)N[C@@H](CCCNC(=N)N)C(=O)Nc1ccc([N+](=O)[O-])cc1 [2HCl.H-EGGGVR-pNA, 2HCl.H-Glu-Gly-Gly-Gly-Val-Arg-pNA] (H-EGGGVR-pNA) |  |  |  | 0.30 s⁻¹ | 0.27 s⁻¹ | 379 | 704 | 201 | 1490 |  |  |
| CC(C)[C@H](NC(=O)CNC(=O)[C@@H](N)CCC(=O)O)C(=O)N[C@@H](CCCNC(=N)N)C(=O)Nc1ccc([N+](=O)[O-])cc1 [2HCl.H-Glu-Gly-Val-Arg-pNA] (H-EGVR-pNA) |  |  |  | 0.93 s⁻¹ | 3.51 s⁻¹ | 3270 | 1070 | 638 | 1430 |  |  |
| CC(C)[C@H](NC(=O)CNC(=O)[C@@H]1CCCN1C(=O)CNC(=O)[C@@H](N)CCC(=O)O)C(=O)N[C@@H](CCCNC(=N)N)C(=O)Nc1ccc([N+](=O)[O-])cc1 [2HCl.H-EGPGVR-pNA, 2HCl.H-Glu-Gly-Pro-Gly-Val-Arg-pNA] (H-EGPGVR-pNA) |  |  |  | 3.41 s⁻¹ | 9.07 s⁻¹ | 1070 | 8440 | 1560 | 2190 |  |  |
